Test results as given in the supplement of paper PMC11208160.

assay: recombinant UMI read abundance after kanamycin selection (control-corrected) (log10(CPM+1)); higher = more efficient recombination; extreme values may be limits of the assay; sequences stand for … in AGTGCAGAGAAAATCGGCCAGTTTTCTCTGCCTGCAGTCCGCATGCCGTGGGACCCCTTGGGTTCTAACCTGTTGCCTAGATTTATGCAGCGGACTGCCTTTCTCCCAAAGTGATAAACCGG…AGGTTGGTTTCACT; site = the 11-nt donor
Outline: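 In Escherichia coli, a pool of donor and donor-binding-loop pairs, each with a 12-nt UMI, was tested for the IS621 bridge recombinase. Plating was on IPTG (0.07 mM) plus kanamycin, or without selection, in two replicates. Recombinant UMIs were amplified by PCR across the donor–target junction and sequenced, and counts were reported as log10(CPM+1) after averaging and control-derived scaling.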
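Further: IS621 bridge recombinase in Escherichia coli cells against a fixed T5 target plasmid.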

In order of rising “recombinant UMI read abundance (log10)” value:
1. CAGAATCCATGGACCGGTTTTCCCGGTAATCCGTATTTGTC (site CGGAATCCTAA)  0
2. TGTATACCATGGACCGGTTTTCCCGGTAATCCGTATTTGAC (site TGTATACCTGT)  0
3. GTAGGCACATGGACCGGTTTTCCCGGTAATCCGTATTTGAC (site GTAGGGACTGT)  0
4. AGAACTACATGGACCGGTTTTCCCGGTAATCCGTATTTGAC (site AGCACTACTGT)  0
5. TCCGTCCCATGGACCGGTTTTCCCGGTAATCCGTATTTGCA (site TCCGTCCCTTG)  0
6. GATAGAACATGGACCGGTTTTCCCGGTAATCCGTATTTGGC (site GGTAGAACTGC)  0
7. TGTATACCATGGACCGGTTTTCCCGGTAATCCGTATTTGAC (site TGTACACCTGT)  0
8. GCGAAAACATGGACCGGTTTTCCCGGTAATCCGTATTTGCT (site GCGAAACCTAG)  0
9. CCTACTGCATGGACCGGTTTTCCCGGTAATCCGTATTTGCC (site TCTACTGCTGG)  0
10. CCCTTGCCATGGACCGGTTTTCCCGGTAATCCGTATTTGCC (site CCCTCGCCTGG)  0
11. GGTCCAACATGGACCGGTTTTCCCGGTAATCCGTATTTGTC (site GGTCCAACTCA)  0.00327
12. TGCTATGCATGGACCGGTTTTCCCGGTAATCCGTATTTGGT (site TGCTAGGCTAC)  0.00428
13. CCGTTAGCATGGACCGGTTTTCCCGGTAATCCGTATTTGTG (site CCGCTAGCTCA)  0.00432
14. CCAGGTGCATGGACCGGTTTTCCCGGTAATCCGTATTTGAT (site CCAGTTGCTAT)  0.00491
15. TTGCCTTCATGGACCGGTTTTCCCGGTAATCCGTATTTGGT (site TTGCCTTCTAC)  0.00638
16. CTCTACACATGGACCGGTTTTCCCGGTAATCCGTATTTGCT (site CTCTGCACTAG)  0.00734
17. AGGAAGACATGGACCGGTTTTCCCGGTAATCCGTATTTGCA (site AGGACGGCTTG)  0.00854
18. AGTGGAACATGGACCGGTTTTCCCGGTAATCCGTATTTGTT (site TGTGGAACTAA)  0.00958
19. CCGTCATCATGGACCGGTTTTCCCGGTAATCCGTATTTGCT (site CGATCATCTAG)  0.00968
20. CCATGCTCATGGACCGGTTTTCCCGGTAATCCGTATTTGAA (site CAATGCTCTTT)  0.0121
21. GAGCTCACATGGACCGGTTTTCCCGGTAATCCGTATTTGTT (site GAGCTCACTAC)  0.0125
22. AACCGTCCATGGACCGGTTTTCCCGGTAATCCGTATTTGCT (site AACCGTCCTAA)  0.0135
23. CCCGGTCCATGGACCGGTTTTCCCGGTAATCCGTATTTGCA (site CCCCGTCCTTG)  0.0143
24. GACAATCCATGGACCGGTTTTCCCGGTAATCCGTATTTGAA (site GGCAATCCTTT)  0.0165
25. CTCCCTACATGGACCGGTTTTCCCGGTAATCCGTATTTGAG (site CTCCCTACTCA)  0.0198
26. TCTTTACCATGGACCGGTTTTCCCGGTAATCCGTATTTGGG (site TCTTTACCTCC)  0.0231
27. TAGCTAGCATGGACCGGTTTTCCCGGTAATCCGTATTTGAA (site TAGTTAGCTTT)  0.0249
28. GGTACGTCATGGACCGGTTTTCCCGGTAATCCGTATTTGTT (site GGAACGTCTAA)  0.0323
29. GCCACCCCATGGACCGGTTTTCCCGGTAATCCGTATTTGTA (site GCCACACCTTA)  0.0331
30. TTAATACCATGGACCGGTTTTCCCGGTAATCCGTATTTGAG (site TTAATACCTCT)  0.0468
31. TAGCTAGCATGGACCGGTTTTCCCGGTAATCCGTATTTGAA (site AAGCTAGCTTT)  0.0472
32. CGCGGCCCATGGACCGGTTTTCCCGGTAATCCGTATTTGTT (site CACGGCCCTAA)  0.167
33. AAAGCAGCATGGACCGGTTTTCCCGGTAATCCGTATTTGCT (site GAAGCAGCTAG)  0.198
34. TCGGACCCATGGACCGGTTTTCCCGGTAATCCGTATTTGAA (site TCGGACCCTTT)  0.274
35. ACTAGTTCATGGACCGGTTTTCCCGGTAATCCGTATTTGGT (site ACTAGTACTAC)  0.293
36. CTACCGCCATGGACCGGTTTTCCCGGTAATCCGTATTTGAC (site CTACCGCCTGT)  0.322
37. ATGTTCCCATGGACCGGTTTTCCCGGTAATCCGTATTTGTG (site ATGTTCCCTCA)  0.419
38. GTATGGACATGGACCGGTTTTCCCGGTAATCCGTATTTGTA (site GTATGTACTTA)  0.44
39. CGGCATCCATGGACCGGTTTTCCCGGTAATCCGTATTTGTT (site CGGCATCCTAA)  0.467
40. AGCGAGCCATGGACCGGTTTTCCCGGTAATCCGTATTTGTT (site AGCGAGCCTAA)  0.501
41. CATTCATCATGGACCGGTTTTCCCGGTAATCCGTATTTGCT (site CGATCATCTAG)  0.633
42. ACGTTAGCATGGACCGGTTTTCCCGGTAATCCGTATTTGTG (site CCGTTAGCTCA)  0.742
43. TCAGGCACATGGACCGGTTTTCCCGGTAATCCGTATTTGGC (site TCAGGCACTGC)  0.89
44. CGAGGAGCATGGACCGGTTTTCCCGGTAATCCGTATTTGGG (site CGAGGAGCTCC)  0.918
45. CTGGAGGCATGGACCGGTTTTCCCGGTAATCCGTATTTGTG (site CTGGAGGCTCA)  1.02
46. TCAGGGACATGGACCGGTTTTCCCGGTAATCCGTATTTGCG (site TCAGGGACTCG)  1.03
47. GATACGTCATGGACCGGTTTTCCCGGTAATCCGTATTTGGT (site GATACGTCTAC)  1.36
48. CGGATATCATGGACCGGTTTTCCCGGTAATCCGTATTTGCT (site CGGATATCTAG)  1.51
49. CTGGGCGCATGGACCGGTTTTCCCGGTAATCCGTATTTGTA (site CTGGGCGCTTA)  1.62
50. TGATCATCATGGACCGGTTTTCCCGGTAATCCGTATTTGCT (site CGATCATCTAG)  1.63
51. AACGACGCATGGACCGGTTTTCCCGGTAATCCGTATTTGTA (site AACGACGCTTA)  1.99
52. AAGCTAGCATGGACCGGTTTTCCCGGTAATCCGTATTTGAA (site AAGCTAGCTTT)  2.09
53. TTGGAATCATGGACCGGTTTTCCCGGTAATCCGTATTTGCG (site TTGGAATCTCG)  2.27
54. ATGAAGGCATGGACCGGTTTTCCCGGTAATCCGTATTTGGC (site ATGAAGGCTGC)  2.32
55. TGGGAGTCATGGACCGGTTTTCCCGGTAATCCGTATTTGCC (site TGGGAGTCTGG)  2.34
56. GTTGCGTCATGGACCGGTTTTCCCGGTAATCCGTATTTGGC (site GTTGCGTCTGC)  2.41
57. GCGGACACATGGACCGGTTTTCCCGGTAATCCGTATTTGCT (site GCGGACACTAG)  2.44
